Test system: U. phaseoli
Assay: Bean rust severity after DFMO and polyamines alone or combined
Type: in vivo, Uromyces phaseoli
Settings: for Lesions per cm^2 / Lesions per leaf / Lesions per leaf, percent of control: postinoculation

NCCCCN [Put, putrescine]
reduction of number of lesions (1 mM Put alone): about one-third | Lesions per cm^2 (polyamine alone 0.01 mM): 57 ± 2 per cm^2 | Lesions per leaf (polyamine alone 0.01 mM): 4013 ± 264 per leaf | Lesions per leaf, percent of control (polyamine alone 0.01 mM): 98% of control | Lesions per cm^2 (polyamine alone 0.1 mM): 54 ± 5 per cm^2 | Lesions per leaf (polyamine alone 0.1 mM): 3189 ± 478 per leaf | Lesions per leaf, percent of control (polyamine alone 0.1 mM): 78% of control | Lesions per cm^2 (polyamine alone 1.0 mM): 44 ± 9 per cm^2 | Lesions per leaf (polyamine alone 1.0 mM): 2698 ± 260 per leaf | Lesions per leaf, percent of control (polyamine alone 1.0 mM): 66% of control

NCCCCNCCCN [Spd, spermidine]
Lesions per cm^2 (polyamine alone 0.01 mM): 56 ± 5 per cm^2 | Lesions per leaf (polyamine alone 0.01 mM): 3209 ± 360 per leaf | Lesions per leaf, percent of control (polyamine alone 0.01 mM): 78% of control | Lesions per cm^2 (polyamine alone 0.1 mM): 58 ± 6 per cm^2 | Lesions per leaf (polyamine alone 0.1 mM): 3416 ± 457 per leaf | Lesions per leaf, percent of control (polyamine alone 0.1 mM): 83% of control | Lesions per cm^2 (polyamine alone 1.0 mM): 50 ± 10 per cm^2 | Lesions per leaf (polyamine alone 1.0 mM): 3926 ± 358 per leaf | Lesions per leaf, percent of control (polyamine alone 1.0 mM): 96% of control
